US20100087534A1, “Use of a Photosensitizing Agent in the Treatment or Prevention of an Inflammation-Associated Disorder in the Gastrointestinal Tract of a Mammal” (priority 2005, published 2010)

Key:
[1] = system: SCID mice with TH1-mediated Crohn-like colitis after transfer of CD4+CD45RBhigh T-cells; experiment: Endoscopic index of colitis severity (EICS) after low dose PDT in transfer colitis (Example 2); format: in vivo
From the text: Since in example 1 only 55% of the mice developed colitis, Applicants have injected 4×10^5 cells CD4+CD45RB^high intravenously into 9.5 weeks old SCID mice in the following second set of SCID mice.
Evolution of colitis in SCID mice was monitored every week by colonoscopic investigation after induction. Mice with moderately inflamed colons [endoscopic index of colitis severity (EICS) index 4-8] or marked inflamed colons (EICS 9-13) were randomly assigned to either a <<low dose>> PDT group or no treatment group (disease control group). Unmanipulated age-matched SCID mice served as negative controls.
PDT was performed with a photosensitizing agent (δ-ALA) dose of 15 mg/kg, administered 3 hours before the illumination with the energy dose of 10 J/cm^2 per gastrointestinal tract tissue.
The illumination time was 100 s, the wavelength 635 nm.
After completing the experiments with 15 mg/kg δ-ALA and 10 J/cm^2, the Applicants evaluated whether an energy illumination energy of 20 or 2 J/cm^2 would provide an equivalent or better effect on colitis. Furthermore, the Applicants sought to determine whether PDT treatment could be repeated at short term and whether this re-treatment would have a beneficial effect on colitis too. To this end, the Applicants performed another set of experiment with marked inflamed mice in which half of the PDT treated mice (15 mg/kg S-ALA and 10 J/cm^2) were subjected to a second identical low dose PDT treatment at the time of the re-apparition of colitis symptoms, namely one week after the first PDT treatment.
Mice were monitored by colonoscopy at day 3 and weeks 1, 2, 3 and 4 post PDT treatment. In addition to parameters investigated in example 1, CD4 immunostaining and apoptosis detection were performed.
All statistical analyses were performed using the Prism version 4.0c software from GraphPad Software (San Diego, Calif.). The unpaired two-tail Mann-Whitney test was usually applied, unless the numbers of mice in test groups were too small to perform this test (<5 mice in both test groups) and the unpaired two-tail t test was thus applied. Significance limit was set at a 2-tailed P value≦0.05.

[2] = system: TNF-α; experiment: TNF-α expression index in colon of transfer colitis SCID mice (FIG. 2); format: in vivo
Method: FIG. 2 represents the expression indices of the proinflammatory markers IFN-γ and TNF-α in untransfered mice, disease control group and PDT group (15 mg/kg of δ-ALA, 10 J/cm^2).
Typically, the expression index of each pro-inflammatory marker of interest is calculated (normalized number of mRNA copies of each manipulated mice/normalized number of mRNA copies of the unmanipulated mice). The results are given as mean values of the expression index (unmanipulated mean mice index=1). […]
The third portion was used for measuring the expression of the molecules involved in immune and inflammatory phenomenons in the colonic mucosa (cytokines, chemokines). […] Quantification of reverse transcripted messenger RNA for GAPDH, the inducible nitric oxide synthetase (iNOS), interferon-gamma (IFN-γ), interleukin-1 receptor antagonist (IL1-Ra), tumor necrosis factor alpha (TNF-α), interleukin 6 (IL-6), tumor growth factor beta (TGF-13) and interleukin10 (IL-10) was performed by quantitative real-time PCR in a BioRad Real-time PCR iCycler using specific pairs of primers and the green fluorescence dye SYBR—Green®. GAPDH was used to normalize quantifications within each individual sample (normalization of the number of mRNA copies for the gene of interest/1 million mRNA copies of the GAPDH gene of the investigated mouse). […]

In the case of `NCC(=O)CCC(=O)O` [δ-ALA, 5-aminolevulinic acid], the EICS ([1]; marked inflamed mice (mean EICS 10.4±0.2 before), 15 mg/kg δ-ALA, 10 J/cm^2, 3 days after PDT, disease control 10.7±0.6, P<0.0001) is reported as 7.3±0.3, the EICS ([1]; marked inflamed mice, 15 mg/kg δ-ALA, 2 J/cm^2, 3 days after PDT, disease control 10.7±0.6, P=0.0271) is reported as 8.4±0.5 and the “EICS versus disease control group” value ([1]; marked inflamed mice, 15 mg/kg δ-ALA, 10 J/cm^2, up to 4 weeks after PDT) is reported as “remained significantly lower than the one of the disease control group mice”. The “effect on colitis (EICS) versus disease control group” value ([1]; marked inflamed mice, 15 mg/kg δ-ALA, 20 J/cm^2, any time point) was “did not induce any significant beneficial effect”, the EICS ([1]; marked inflamed mice, one single PDT treatment, time point 1 week after second PDT of comparison group) was 9.8±0.5 and the EICS ([1]; marked inflamed mice, one single PDT treatment, time point 2 weeks after second PDT of comparison group) was 9.8±0.6. For the same molecule, the EICS ([1]; marked inflamed mice, two PDT treatments (15 mg/kg, 10 J/cm^2) one week apart, 1 week after second PDT) was 7.3±0.9, the EICS ([1]; marked inflamed mice, two PDT treatments one week apart, 2 weeks after second PDT) was 7.33±0.3 and the “EICS versus disease control group” value ([1]; moderately inflamed mice, since week 2 post PDT) was “appeared no more significantly different from the one of the disease control group”. For the same molecule, the “expression index TNF-α after low dose PDT” value ([2]; 15 mg/kg δ-ALA, 10 J/cm^2, versus disease control group (FIG. 2)) was “decreased significantly” and the “decrease of the expression of pro-inflammatory marker TNF-α” value ([2]; 10 J/cm^2, 15 mg/kg δ-ALA, compared to "colonoscopy" mice, deduced from FIG. 2) was 63%.
